pIC50: −log10 of the molar value. Where two headings read alike, the source gives them in different places.
Tested on: PKC mediated IL-2 production in human primary T cells
Assay: IL-2 ELISA, human primary T cell, anti CD3+CD28+ (whole cell functional assay for PKC mediated IL-2 production)
Type: cell-based
Method in brief: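 Primary human T cells (PBMC-derived, expanded on plate-bound anti-CD3/CD28 with IL-2, then IL-2-washed) were pre-incubated 1 h at 37 °C with compound, then stimulated on 1 μg/ml anti-CD3 plus 5 μg/ml anti-CD28. After 24 h at 37 °C, secreted IL-2 was measured by ELISA; counter assay used 0.5 ng/ml PMA plus 0.1 μM ionomycin (final).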

[1] = 24 h, human primary T cells stimulated with anti-CD3 + anti-CD28, IL-2 by ELISA, read-out: IC50 for blocking IL-2 production
[2] = human primary T cells stimulated with anti-CD3 + anti-CD28, 24 h, IL-2 by ELISA, 8 pt, read-out: IL2 ELISA, Human primary T cell, anti-CD3 + CD28, 8 pt (IC50)

SMILES | pIC50 [1] | pIC50 [2]
CC(C)N1C(=O)C(C)(C)Oc2cc(Nc3ncc(F)c(NC[C@@H]4CCCN5CCCC[C@H]45)n3)ccc21 [Compound 16, 7-(4-(((1S,9aR)-octahydro-1H-quinolizin-1-yl)methylamino)-5-fluoropyrimidin-2-ylamino)-4-isopropyl-2,2-dimethyl-2H-benzo[b][1,4]oxazin-3(4H)-one] | > 4.52 | 6.15
Cc1cnc(Nc2cc(C#N)c(C3CC3)cc2F)nc1NC[C@@H]1CCCN2CCCC[C@H]12 [Compound 69, 5-(4-(((1S,9aR)-octahydro-1H-quinolizin-1-yl)methylamino)-5-methylpyrimidin-2-ylamino)-2-cyclopropyl-4-fluorobenzonitrile] | > 4.52 | 6.58
Cn1nnn(-c2cc(Nc3ncc(F)c(NC[C@@H]4CCCN5CCCC[C@H]45)n3)c(F)cc2OC(C)(C)CO)c1=O [Compound 148, 1-(4-fluoro-5-((5-fluoro-4-((((1S,9aR)-octahydro-2H-quinolizin-1-yl)methyl)amino)pyrimidin-2-yl)amino)-2-((1-hydroxy-2-methylpropan-2-yl)oxy)phenyl)-4-methyl-1,4-dihydro-5H-tetrazol-5-one] | > 4.52 | 5.80
Fc1cnc(Nc2ccc(N3CCOCC3)c(C(F)(F)F)c2)nc1NC[C@@H]1CCCN2CCCC[C@H]12 [Compound 19, 5-fluoro-N2-(3-(trifluoromethyl)-4-morpholinophenyl)-N4-(((1S,9aR)-octahydro-1H-quinolizin-1-yl)methyl)pyrimidine-2,4-diamine] | > 4.52 | 6.26
Cc1ccc(Nc2nccc(NC[C@@H]3CCCN4CCCC[C@H]34)n2)cc1C#N [Compound 54, 5-(4-(((1S,9aR)-octahydro-1H-quinolizin-1-yl)methylamino)pyrimidin-2-ylamino)-2-methylbenzonitrile] | > 4.52 | 5.96
N#Cc1cccc(Nc2nccc(NC[C@@H]3CCCN4CCCC[C@H]34)n2)c1 [Compound 53, 3-(4-(((1S,9aR)-octahydro-1H-quinolizin-1-yl)methylamino)pyrimidin-2-ylamino)benzonitrile] | > 4.52 | 5.60
Cc1nnnn1-c1cc(Nc2ncc(N(C)C)c(NC[C@@H]3CCCN4CCCC[C@H]34)n2)ccc1F [Compound 88, N2-(4-fluoro-3-(5-methyl-1H-tetrazol-1-yl)phenyl)-N4-(((1S,9aR)-octahydro-1H-quinolizin-1-yl)methyl)-N5,N5-dimethylpyrimidine-2,4,5-triamine] | > 4.52 | 4.90
Cc1cnc(Nc2cc(-n3cnnn3)c(C3CC3)cc2F)nc1NC[C@@H]1CCCN2CCCC[C@H]12 [Compound 59, N2-(4-cyclopropyl-2-fluoro-5-(1H-tetrazol-1-yl)phenyl)-N4-(((1S,9aR)-octahydro-1H-quinolizin-1-yl)methyl)-5-methylpyrimidine-2,4-diamine] | > 4.52 | 6.80
COc1cnc(Nc2ccc(C)c(C#N)c2)nc1NC[C@@H]1CCCN2CCCC[C@H]12 [Compound 80, 5-(4-(((1S,9aR)-octahydro-1H-quinolizin-1-yl)methylamino)-5-methoxypyrimidin-2-ylamino)-2-methylbenzonitrile] | > 4.52 | 5.60
COc1cc(Nc2ncc(C(F)(F)F)c(NC[C@@H]3CCCN4CCCC[C@H]34)n2)cc(-n2nnnc2C)c1 [Compound 106, 5-(trifluoromethyl)-N4-(((1S,9aR)-octahydro-1H-quinolizin-1-yl)methyl)-N2-(3-methoxy-5-(5-methyl-1H-tetrazol-1-yl)phenyl)pyrimidine-2,4-diamine] | > 4.52 | 4.67
COc1ccc(Nc2ncc(N(C)C)c(NC[C@@H]3CCCN4CCCC[C@H]34)n2)cc1-n1nnnc1C [Compound 90, N4-(((1S,9aR)-octahydro-1H-quinolizin-1-yl)methyl)-N2-(4-methoxy-3-(5-methyl-1H-tetrazol-1-yl)phenyl)-N5,N5-dimethylpyrimidine-2,4,5-triamine] | > 4.52 | 5.01
N#Cc1cnc(Nc2ccc(Cl)c(-n3nnnc3C3CC3)c2)nc1NC[C@@H]1CCCN2CCCC[C@H]12 [Compound 124, 4-(((1S,9aR)-octahydro-1H-quinolizin-1-yl)methylamino)-2-(4-chloro-3-(5-cyclopropyl-1H-tetrazol-1-yl)phenylamino)pyrimidine-5-carbonitrile] | > 4.52 | 8.51
N#Cc1cccc(Nc2ncc(Cl)c(NC[C@@H]3CCCN4CCCC[C@H]34)n2)c1 [Compound 39, 3-(4-(((1S,9aR)-octahydro-1H-quinolizin-1-yl)methylamino)-5-chloropyrimidin-2-ylamino)benzonitrile] | > 4.52 | 6.38
COc1cc(Nc2ncc(N(C)C)c(NC[C@@H]3CCCN4CCCC[C@H]34)n2)cc(-n2nnnc2C)c1 [Compound 91, N4-(((1S,9aR)-octahydro-1H-quinolizin-1-yl)methyl)-N2-(3-methoxy-5-(5-methyl-1H-tetrazol-1-yl)phenyl)-N5,N5-dimethylpyrimidine-2,4,5-triamine] | > 4.52 | 5.10
N#Cc1cccc(Nc2ncc(C(F)(F)F)c(NC[C@@H]3CCCN4CCCC[C@H]34)n2)c1 [Compound 107, 3-(4-(((1S,9aR)-octahydro-1H-quinolizin-1-yl)methylamino)-5-(trifluoromethyl)pyrimidin-2-ylamino)benzonitrile] | > 4.52 | 4.77
N#Cc1cnc(Nc2ccc(F)c(-n3nnnc3C3CC3)c2)nc1NC[C@@H]1CCCN2CCCC[C@H]12 [Compound 122, 4-(((1S,9aR)-octahydro-1H-quinolizin-1-yl)methylamino)-2-(3-(5-cyclopropyl-1H-tetrazol-1-yl)-4-fluorophenylamino)pyrimidine-5-carbonitrile] | > 4.52 | 7.69
Cn1nnn(-c2cc(Nc3ncc(F)c(NC[C@@H]4CCCN5CCCC[C@H]45)n3)c(F)cc2OCC(C)(C)O)c1=O [Compound 154, 1-(4-fluoro-5-((5-fluoro-4-((((1S,9aR)-octahydro-2H-quinolizin-1-yl)methyl)amino)pyrimidin-2-yl)amino)-2-(2-hydroxy-2-methylpropoxy)phenyl)-4-methyl-1,4-dihydro-5H-tetrazol-5-one] | > 4.52 | 6.73
COc1cc(Nc2ncc(C(F)(F)F)c(NC[C@@H]3CCCN4CCCC[C@H]34)n2)cc(OC)c1 [Compound 111, 5-(trifluoromethyl)-N4-(((1S,9aR)-octahydro-1H-quinolizin-1-yl)methyl)-N2-(3,5-dimethoxyphenyl)pyrimidine-2,4-diamine] | > 4.52 | 4.90
COCCOCCOc1cc(F)c(Nc2ncc(C#N)c(NC[C@@H]3CCCN4CCCC[C@H]34)n2)cc1-n1nnn(C)c1=O [Compound 133, 2-((2-fluoro-4-(2-(2-methoxyethoxyl)ethoxy)-5-(4-methyl-5-oxo-4,5-dihydro-1H-tetrazol-1-yl)phenyl)amino)-4-((((1S,9aR)-octahydro-2H-quinolizin-1-yl)methyl)amino)pyrimidine-5-carbonitrile] | > 4.52 | 6.00
COc1cc(Nc2ncc(C#N)c(NC[C@@H]3CCCN4CCCC[C@H]34)n2)cc(-n2nnnc2C)c1 [Compound 115, 4-(((1S,9aR)-octahydro-1H-quinolizin-1-yl)methylamino)-2-(3-methoxy-5-(5-methyl-1H-tetrazol-1-yl)phenylamino)pyrimidine-5-carbonitrile] | > 4.52 | 7.65
COc1cnc(Nc2cc(-n3cnnn3)c(C3CC3)cc2F)nc1NC[C@@H]1CCCN2CCCC[C@H]12 [Compound 72, N2-(4-cyclopropyl-2-fluoro-5-(1H-tetrazol-1-yl)phenyl)-N4-(((1S,9aR)-octahydro-1H-quinolizin-1-yl)methyl)-5-methoxypyrimidine-2,4-diamine] | > 4.52 | 5.90
Cc1nnnn1-c1ccc(F)c(Nc2nccc(NC[C@@H]3CCCN4CCCC[C@H]34)n2)c1 [Compound 50, N2-(2-fluoro-5-(5-methyl-1H-tetrazol-1-yl)phenyl)-N4-(((1S,9aR)-octahydro-1H-quinolizin-1-yl)methyl)pyrimidine-2,4-diamine] | > 4.52 | 5.70
N#Cc1cnc(Nc2cc(-n3nnnc3C3CC3)ccc2F)nc1NC[C@@H]1CCCN2CCCC[C@H]12 [Compound 123, 4-(((1S,9aR)-octahydro-1H-quinolizin-1-yl)methylamino)-2-(5-(5-cyclopropyl-1H-tetrazol-1-yl)-2-fluorophenylamino)pyrimidine-5-carbonitrile] | > 4.52 | 7.38
CC1(C)Oc2cc(Nc3ncc(F)c(NC[C@@H]4CCCN5CCCC[C@H]45)n3)ccc2N(CC2CC2)C1=O [Compound 18, 7-(4-(((1S,9aR)-octahydro-1H-quinolizin-1-yl)methylamino)-5-fluoropyrimidin-2-ylamino)-4-(cyclopropylmethyl)-2,2-dimethyl-2H-benzo[b][1,4]oxazin-3(4H)-one] | > 4.52 | 6.90
CC(O)COc1ccc(Nc2ncc(C#N)c(NC[C@@H]3CCCN4CCCC[C@H]34)n2)cc1C#N (stereo partly drawn) [Compound 144, 2-((3-cyano-4-(2-hydroxypropoxy)phenyl)amino)-4-((((1S,9aR)-octahydro-2H-quinolizin-1-yl)methyl)amino)pyrimidine-5-carbonitrile] | > 4.52 | 4.91
Cc1ccc(Nc2ncc(N(C)C)c(NC[C@@H]3CCCN4CCCC[C@H]34)n2)cc1C#N [Compound 93, 5-(4-(((1S,9aR)-octahydro-1H-quinolizin-1-yl)methylamino)-5-(dimethylamino)pyrimidin-2-ylamino)-2-methylbenzonitrile] | > 4.52 | 5.41

— patent US9913843B2, “Protein kinase C inhibitors and uses thereof” (Rigel Pharmaceuticals, Inc., priority 2012, dated 2018)
